Results reported in US20230338463A1, “ICD PEPTIDE AND USE THEREOF FOR HAVING CYTOTOXIC ACTIVITY ON CANCER CELLS” (NATIONAL TSING HUA UNIVERSITY, priority 2022, published 2023).
Non-standard residues stand in square brackets, D forms with d. Residues, ends and D or L forms follow the SMILES beside them. Bip = N[C@@H](Cc1ccc(-c2ccccc2)cc1)C(=O)O; Dip = N[C@H](C(=O)O)C(c1ccccc1)c1ccccc1

How the values were obtained:
[1] = tested on: CGNHC9 cells (oral squamous cell carcinoma); details: for cell viability percentage: human, 24 h
From the text: (§1) Three non-small cell lung cancer cell lines (H1975, A549, PC9) and two oral cancer cell lines (CGNHC9, OECM-1) were used in the present invention. H1975 is the non-small cell lung carcinoma tissue, A549 is the adenocarcinomic alveolar basal epithelial cells and PC9 is the non-small cell lung cancer with EGFR mutation. CGNHC9 and OECM-1 cell lines refer to oral squamous cell carcinoma and gingival epidermoid carcinoma respectively. The abovemetioned cell lines were derived from human origin and being cultured in the humidified incubator containing 5% CO2 at 37° C. CGNHC9 cell line was cultured in Dulbecco’s modified Eagle’s medium (GIBCO Life Technologies Corporation, NY, USA) with 10% fetal bovine serum (FBS), 2 mM L-glutamine and 1% penicillin/ streptomycin and Roswell Park Memorial Institute 1640 (RPMI 1640, GIBCO Life Technologies Corporation, NY, USA) medium with 10% fetal bovine serum (FBS), 2 mM L-glutamine and 1% penicillin/ streptomycin was used as the culture medium for the rest of the cell lines.
(§2) The anticancer activity of ICD peptides include, not limited, SEQ ID NO: 1 and its derivative peptides (SEQ ID NO: 2, SEQ ID NO: 3, SEQ ID NO: 4, and SEQ ID NO: 5) was using the 3-(4,5-Dimethyl-2-thiazolyl)-2,5-diphenyl-2H-tetrazolium bromide (MTT, Sigma Aldrich, St. Louis, MO, USA) colorimetric assay for cell viability test. The cells include, not limited, H1975, A549, PC9, CGNHC9, OECM-1, MN-11 and HFW cells/cell lines.
(§3) The cells were seeded in the 96-well plate at 5000 cells/well under the environment of humidified 5% CO2 and the temperature of 37° C. for 24 hours. The medium was removed from the well before the fresh medium containing different concentrations of ICD peptides was added and incubated for 24 hours. Medium with PBS solution was used as control group. All ICD peptides were diluted serially from 100 µM to 0.78 µM in ddH2O before adding in the medium. After 24 hours of ICD peptide treatment, fresh medium with 10% MTT solution (5 mg/mL) was incubated for additional 4 hours in advance of dissolving the formazan crystal in 100 µL DMSO (Dimethyl sulfoxide, Sigma Aldrich) solution. The calculation of cell survival rate was completed by measuring the absorbance at 570 nm using microplate reader (TECAN Sunrise ELISA Reader).
(§4) The cell survival was calculated from the treated cells relative to the control (100% viable cells) using the mean of three independent experiments and expressed as a 50% inhibitory concentration (IC50).
(§5) The percentage of cell viability was calculated using the following formula: […]
(§6) The half inhibition concentration (IC50) is the concentration required by the drug to reach fifty percent inhibition. In one embodiment, the SEQ ID NO: 1 and its derivative peptides (SEQ ID NO:2, SEQ ID NO:3, SEQ ID NO:4, SEQ ID NO: 5) was used for IC50 test via MTT colorimetric assay.

[2] = tested on: PC9 cells (non-small cell lung cancer with EGFR mutation); details: human, 24 h
From the text: as §1, §2, §3, §4, §5, §6

[3] = tested on: OECM-1 cells (gingival epidermoid carcinoma); details: for cell viability percentage: human, 24 h
From the text: as §1, §2, §3, §4, §5, §6

[4] = tested on: MN-11 cells (murine fibrosarcoma); assay type: cell-based
From the text: Medium with PBS solution was used as control group.
Besides, MTT assay was used to test the cell viability of the murine fibrosarcoma MN-11 cell line. Among the peptides, Dip-P-113 had the lowest cytotoxicity against MN-11 cells (FIG. 1F).

[5] = tested on: MN-11 cell line; assay type: cell-based, murine; details: 2 h
Protocol: Besides, evaluation of the killing kinetics of Nal-P-113, Bip-P-113 and Dip-P-113 for MN-11 was determined by MTT assay. Two-fold half 1inhibitory concentration (2 × IC50) was chosen for the experiments and the results were recorded at selected time points (30 mins, 1 hour, 2 hours and 4 hours). […] In 2 hours, the cell survival rate was near 50%.

[6] = tested on: H1975 cells (non-small cell lung cancer); details: 24 h
From the text: as §1, §2, §3, §4, §5, §6

[7] = tested on: A549 cells (adenocarcinomic alveolar basal epithelial cells); details: A549, MTT, 24 hours
From the text: as §1, §2, §3, §4, §5, §6

Row | Compound | cell viability percentage [1] | cell viability percentage [2] | cell viability percentage [3] | IC50 [4] [µM] | cell survival rate [5] [%] | IC50 [6] [µM] | IC50 ([1]; CGNHC9, MTT, 24 hours) [µM] | IC50 [7] [µM] | IC50 ([3]; OECM-1, MTT, 24 hours) [µM]
1 | CC(=O)N[C@@H](C)C(=O)N[C@@H](CCCCN)C(=O)N[C@@H](CCCNC(=N)N)C(=O)N[C@@H](Cc1ccc(-c2ccccc2)cc1)C(=O)N[C@@H](Cc1ccc(-c2ccccc2)cc1)C(=O)NCC(=O)N[C@@H](Cc1ccc(O)cc1)C(=O)N[C@@H](CCCCN)C(=O)N[C@@H](CCCNC(=N)N)C(=O)N[C@@H](CCCCN)C(=O)N[C@@H](Cc1ccccc1)C(=O)N[C@@H](Cc1ccc(-c2ccccc2)cc1)C(N)=O [SEQ ID NO:4, Ac-AKR Bip Bip GYKRKF Bip-NH2] (Ac-AKR[Bip][Bip]GYKRKF[Bip]-NH2) | lower than 20% | lower than 20% | lower than 20% | 12.1 ± 0.47 | ~50 |  |  |  | 
2 | CC(=O)N[C@@H](C)C(=O)N[C@@H](CCCCN)C(=O)N[C@@H](CCCNC(=N)N)C(=O)N[C@H](C(=O)N[C@H](C(=O)NCC(=O)N[C@@H](Cc1ccc(O)cc1)C(=O)N[C@@H](CCCCN)C(=O)N[C@@H](CCCNC(=N)N)C(=O)N[C@@H](CCCCN)C(=O)N[C@@H](Cc1ccccc1)C(=O)N[C@H](C(N)=O)C(c1ccccc1)c1ccccc1)C(c1ccccc1)c1ccccc1)C(c1ccccc1)c1ccccc1 [SEQ ID NO: 5, Ac-AKR Dip Dip GYKRKFDip-NH2] (Ac-AKR[Dip][Dip]GYKRKF[Dip]-NH2) | lower than 20% | lower than 20% | lower than 20% | 59.8 ± 6.13 | ~50 | 100 |  |  | 
3 | Ac-AKRHHGYKRKFH-NH2 [SEQ ID NO: 1, Ac-AKR His His GYKRKF His-NH2] |  |  |  |  |  | 110 | 84.3 | 107 | 141
4 | Ac-AKRFFGYKRKFF-NH2 [SEQ ID NO:2, Ac-AKR Phe Phe GYKRKF Phe-NH2] |  |  |  |  |  | 107 |  |  | 
